Laboratory results taken from patent US11690895B2, “Compositions and methods of interferon alpha binding proteins” (priority 2017, dated 2023).

Experiments:
rat neurons = assay: PSD-95 puncta on rat neurons exposed to IFNα; format: cell-based; settings: IFNα 300 IU/mL, compared to control neurons
Protocol: (§1) Rat neurons were either obtained from Brain Bits (Cat #SDECX; embryonic day 18) and cultured in NBACTIV1 media (Cat #nbactivl) until day 14, when they are relatively “mature”, or cortical neurons were prepared from embryonic day 18 Sprague Dawley fetuses. Two different densities of neurons were utilized, based on test procedures. For PSD-95 puncta, low density cultures (10,000 neurons/cm') were placed on 12 mm poly D Lysine (Sigma cat #2636) coated coverslips, incubated in wells with glia (astrocytes) or removed for IFNα (300 IU/ml) exposure. High density cultures (500,000 neurons/60 mm dish) were used for protein extraction. These cultures contained approximately 2-3% glia (GFAP immunostaining).
Rat neurons were seeded on poly-L-lysine coated coverslips and co-cultured with astroglia. On day 14, half of the conditioned medium from co-culture was transferred to new 6 well plates. […] PSD-95 puncta were identified and counted with SYNPANAL software. […] PSD-95 puncta along the region were counted and divided by the length to obtain PSD-95 puncta/unit. […] For each treatment, the average puncta/unit was determined by averaging the puncta/unit for each neuron (at least 10/treatment in each replicate plate). For each treatment within the experiment, the average puncta/unit is determined by averaging the puncta/unit for each replicate of that treatment (thus, n=3/treatment) for 20 min and 2 hours. […]

Arf1 = Arf1 expression in rat neuronal cultures (proteomics, Western blot); format: cell-based; settings: IFNα 300 IU/ml
Protocol: as §1
Protein samples (5 to 10 micrograms) were resolved in Criterion precast gels (Bio-Rad) and transferred to a PVDF membrane using a semidry system (Bio-Rad). All blocking antibody and washing steps were performed at room temperature (RT) on a rocker. Membranes were incubated for one hour in 3% non-fat dry milk in TBST (25 mM Tris, 140 mM NaCl, 3 mM KCl, and 0.05% Tween-20), then 4 hr in anti-Arfl antibody (cat #ARP75924_P050, Aviva; 1:1000) diluted in 1% non-fat dry milk in TBST. Membranes were briefly washed in TBST followed by 3 separate 5 minute incubations in TBST. Membranes were incubated for one hour with goat anti-rabbit IgG HRP (cat #NEF812001EA, Perkin Elmer 1:5,000) diluted in 1% non-fat dry milk in TBST. Final washing included a quick rinse with ddH2O, 2 min wash in TBST, 4 min wash in TBST, and 5 min wash in 1× TBS. Immunoreactive bands were detected with chemiluminescence using ECL Prime substrate (cat #RPN2236, GE Healthcare Life Sciences) on a Chemidoc imager (Bio-Rad), and quantified with ImageJ (NIH). Arf1 signal was normalized to GAPDH Western blot (WB) intensity (cat #MAB374, Millipore;1:20,000).
For proteomic analysis of total protein, rat cortical neurons were cultured in 60 mm dishes in high density (described above). After 14 days, cells were treated with 300 IU/mL IFNα for 20 min, 2 hr, 8 hr, 24 hr, or 48 hr. For comparison of the proteome, untreated cells were given sterile, distilled water (vehicle) equal to the volume of IFNα. After incubations, cells were washed once in RT phosphate buffered saline (PBS) and scraped into 500 microliters of PBS. Cell slurries were snap frozen in a dry ice ethanol bath and processed by the Emory University Proteomics Core.
To select proteins for further analysis, GO-Elite software was used. […] These lists of accession numbers were derived by identifying proteins for which the total peptide spectral match (PSM) was seven-fold (or more) lower in the IFNα treated sample than in the control sample. […] Thus, Arfl was selected for WB analysis.

AMPA receptor (AMPAR) = assay: AMPA receptor (GLuR2) immunofluorescent staining of rat neurons; format: cell-based; settings: IFNα exposure for 2 hours
Protocol: Rat neurons were fixed with 4% paraformaldehyde in PBS for 20 min at RT. They were incubated with anti-GLuR2 (EMD Millipore, Burlington Mass.; 1:100), a subunit of the AMPA receptor (AMPAR), for 1 hour at RTO in the dark. After washes, this was followed by incubation with DAPI […] (Images were subjected ImageJ software for densitometric analysis).

rat neuronal cultures = settings: mediated through IFNAR and NMDAR, earlier studies; cited from earlier work

Substance: IFNα
- PSD-95 puncta (rat neurons; 20 minutes): significantly decreased
- PSD-95 puncta (rat neurons; 2 hours): significantly decreased
- Arf1 level (Western blot) (Arf1; 2 hours): decreases
- Arf1 level (Western blot) (Arf1; 4 hours): decreases
- Arf1 level (Western blot) (Arf1; 8 hours (data not shown)): decreased
- Arf1 level (Western blot) (Arf1; 24 hours (data not shown)): not consistently
- neuronal surface expression of AMPARs (AMPA receptor (AMPAR)): significantly decreased
- effect on dendrites of rat neuronal cultures (rat neuronal cultures): dendritic simplification
